As usually defined, the melting point is the temperature, or range, at which the solid turns liquid.

For data set [1], the target named is T1, TANK-2 enzyme (Homo sapiens, UniProt Q9H2K2).
T1 construct: made in house
T1 sequence (Q9H2K2 1-1166): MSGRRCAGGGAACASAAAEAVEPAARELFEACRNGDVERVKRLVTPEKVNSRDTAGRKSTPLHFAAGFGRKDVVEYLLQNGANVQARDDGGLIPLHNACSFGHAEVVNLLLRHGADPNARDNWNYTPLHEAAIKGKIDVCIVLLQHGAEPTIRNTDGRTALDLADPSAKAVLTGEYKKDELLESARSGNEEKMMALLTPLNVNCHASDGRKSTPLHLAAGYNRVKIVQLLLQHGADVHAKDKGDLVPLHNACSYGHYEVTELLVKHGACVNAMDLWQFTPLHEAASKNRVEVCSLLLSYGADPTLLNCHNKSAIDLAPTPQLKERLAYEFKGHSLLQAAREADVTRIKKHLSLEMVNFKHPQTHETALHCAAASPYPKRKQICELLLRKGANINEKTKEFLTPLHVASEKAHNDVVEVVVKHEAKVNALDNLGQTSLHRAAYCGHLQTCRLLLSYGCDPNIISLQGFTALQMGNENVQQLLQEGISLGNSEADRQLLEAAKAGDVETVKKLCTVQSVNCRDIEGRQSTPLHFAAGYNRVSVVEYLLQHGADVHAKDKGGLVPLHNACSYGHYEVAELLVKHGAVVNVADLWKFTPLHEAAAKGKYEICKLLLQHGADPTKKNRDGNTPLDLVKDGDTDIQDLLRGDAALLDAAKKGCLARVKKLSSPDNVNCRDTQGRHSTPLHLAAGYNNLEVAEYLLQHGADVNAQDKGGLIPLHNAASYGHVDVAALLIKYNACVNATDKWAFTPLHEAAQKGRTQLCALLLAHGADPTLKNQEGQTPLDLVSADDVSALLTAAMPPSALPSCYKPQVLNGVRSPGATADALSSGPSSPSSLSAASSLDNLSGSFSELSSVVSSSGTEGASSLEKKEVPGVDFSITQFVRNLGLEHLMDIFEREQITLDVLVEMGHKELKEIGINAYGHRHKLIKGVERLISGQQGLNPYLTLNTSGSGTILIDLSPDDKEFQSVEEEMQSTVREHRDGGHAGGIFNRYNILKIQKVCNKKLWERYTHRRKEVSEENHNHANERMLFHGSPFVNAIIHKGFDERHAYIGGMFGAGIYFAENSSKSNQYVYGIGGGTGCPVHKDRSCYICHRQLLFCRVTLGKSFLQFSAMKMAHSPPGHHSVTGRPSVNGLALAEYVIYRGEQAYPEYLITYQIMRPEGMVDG
Briefly: In vitro Scintillation Proximity Assay (SPA) for TANK-2 inhibitory activity. In kind it is biochemical. Particulars: read-out: in vitro SPA assay TANK-2 pIC50 (converted). An outline of the steps: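 TANK-2 (8 μg/ml final) auto-poly(ADP-ribosyl)ation with [3H]-NAD+/NAD donor was run in Ni flash plates in Tris/HCl pH 7.4 buffer with DTT and MgCl2, 120 min at room temperature, then stopped with excess NAD and scintillation-counted. Blank-corrected cpm was expressed as % of enzyme control, and IC50 was linearly interpolated and reported as pIC50.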

Data set [2] deals with tubulin. Briefly: Tubulin polymerization assay. The data set is classed as biochemical. On the set-up: key: a compound showing 0 to 50% inhibition at 20 μM is reported as score 1; Score 2 compounds are defined as compound showing more than 50% inhibition at 20 μM and less than 50% inhibition at 5 μM; a compound showing more than 50% inhibition at 5 μM is reported as score 3. Particulars: tested at 20 μM and 5 μM. How it is done:
The tubulin polymerization assay is an adaptation of an assay originally described by Bonne, D. et al. (J. Biol. Chem., 1985, 260:2819-25). The assay kit was purchased from Cytoskeleton, Inc. (catalogue number BK011) and the assay was performed as described by the supplier with the following modifications. The assay was run in a 384-well black Proxiplate (Perkin Elmer) and volumes were adapted accordingly. The reactions were carried out in a final volume of 10 μl. Compounds were added to 25 μl of the reaction mix in 96-well PP plates (Corning) on ice and 10 μl of this mixture was dispensed into duplicates of the 384-well Proxiplates pre-warmed to 37° C. in a Fluoroskan Ascent plate reader (Thermo Scientific). Fluorescence measurements were taken every minute for one hour. The maximum slope of each well was determined (linear regression through 4 consecutive points) and polymerization was calculated as a percentage of polymerization observed in the absence of compound. Compounds were first measured at a concentration of 20 μM and then at 5 μM for those showing more than 50% inhibition at 20 μM as compared to the polymerization observed in the absence of compound. Results are reported in Table F-2 as scores defined as: a compound showing 0 to 50% inhibition at 20 μM is reported as score 1; a compound showing more than 50% inhibition at 5 μM is reported as score 3.

`CCc1cc2ccc(C(C)(C#N)Cc3ccc(Cl)nc3Cl)cc2[nH]c1=O` (stereo not shown) [Compound 212] had a melting point of 222 °C. The IC50 in data set [1] was 126 nM.
The corresponding values for `CCc1cc2ccc([C@](C)(C#N)CN(C)Cc3ccc(C#N)cc3)cc2[nH]c1=O` [Compound 190] are 106 °C and 251 nM.
Take `CCc1cc2ccc(C(C)(C#N)Cc3cccc(-c4cnn(C)c4)c3)cc2[nH]c1=O` (stereo not shown) [Compound 17]: the melting point was found to be 170 °C. In addition, the IC50 in data set [1] is 50.1 nM.
Consider `CCc1cc2ccc(C(C)(C#N)Cc3cc(C)cc(C#N)c3)cc2[nH]c1=O` (stereo not shown) [Compound 174], for which the melting point is 212 °C. In data set [1], the IC50 is 200 nM.
Molecule `CCc1cc2ccc(C(C)(C#N)CCCN(C)C(=O)c3ccc(F)cc3)cc2[nH]c1=O` (stereo not shown) [Compound 188] had a melting point of 256 °C. In addition, the IC50 in data set [1] was 20 nM.
`CCc1cc2ccc(C(C)(C#N)Cc3cccc(O)c3)cc2[nH]c1=O` (stereo not shown) [Compound 22]: the melting point turned out to be 217 °C. For the same molecule, in data set [1], the IC50 is 50.1 nM.
In the case of `CCc1cc2ccc([C@](C)(C#N)Cc3cc(F)cc(F)c3)cc2[nH]c1=O` [Compound 333], in data set [1], the IC50 is 79.4 nM. Besides, in data set [2], the tubulin polymerisation score was 1 (a compound showing 0 to 50% inhibition at 20 μM is reported as score 1).
The corresponding values for `CCc1cc2ccc(C(C#N)(CC)Cc3nc(OC)cc(OC)n3)cc2[nH]c1=O` (stereo not shown) [Compound 321] are 158 nM and 2.
The corresponding values for `CCc1cc2ccc([C@@](C)(C#N)[C@H]3CCOc4ccccc43)cc2[nH]c1=O` (single isomer, unassigned) [Compound 395] are 501 nM and 2.
The matching figures for `Cc1cc2ccc(C(C)(C#N)C3CCc4ccc(Br)cc43)cc2[nH]c1=O` (stereo not shown) [Compound 249]: 2510 nM and 2.
As to `CCc1cc2ccc(C(C#N)(CC)Cc3cccc(C#N)n3)cc2[nH]c1=O` (stereo not shown) [Compound 342], in data set [1], the IC50 was 39.8 nM. Besides, the tubulin polymerisation score in data set [2] is 3 (a compound showing more than 50% inhibition at 5 μM is reported as score 3).
Consider `CCc1cc2ccc(C(C#N)(CC)Cc3nc(C#N)cc(OC)n3)cc2[nH]c1=O` (stereo not shown) [Compound 316], for which the IC50 in data set [1] is 126 nM. Further, the tubulin polymerisation score in data set [2] came to 2.
The matching figures for `CCc1cc2ccc([C@](C)(C#N)C[C@H]3Cc4ccccc4O3)cc2[nH]c1=O` [Compound 397]: 100 nM and 1 (a compound showing 0 to 50% inhibition at 20 μM is reported as score 1).
For `CCc1cc2ccc(C(C#N)(CC)Cc3cccc(C#N)c3)cc2[nH]c1=O` (stereo not shown) [Compound 265], the IC50 in data set [1] was 100 nM. Moreover, the tubulin polymerisation score in data set [2] was found to be 2.
For `CCOc1cc(C#N)nc(CC(C)(C#N)c2ccc3cc(CC)c(=O)[nH]c3c2)n1` (stereo not shown) [Compound 315], in data set [1], the IC50 was 100 nM. The same molecule displayed a tubulin polymerisation score in data set [2] of 2.
The matching figures for `CCc1cc2ccc(C(C)(C#N)CCOc3ncc(Br)cn3)cc2[nH]c1=O` (stereo not shown) [Compound 349]: 200 nM and 2.
The matching figures for `CCc1cc2ccc(C(C)(C#N)CN3CCc4ccccc4C3)cc2[nH]c1=O` (stereo not shown) [Compound 376]: 200 nM and 1 (a compound showing 0 to 50% inhibition at 20 μM is reported as score 1).
For `CCc1cc2ccc(C(C#N)(CC)Cc3cccc(OC)c3)cc2[nH]c1=O` (stereo not shown) [Compound 287], the IC50 in data set [1] is 1000 nM. In data set [2], this molecule displayed a tubulin polymerisation score of 2.
The matching figures for `CCc1cc2ccc(C(C)(C#N)CN3CCN(c4ncc(Br)cn4)CC3)cc2[nH]c1=O` (stereo not shown) [Compound 374]: 501 nM and 2.
The corresponding values for `CCc1cc2ccc(C(C)(C#N)Cc3ccc(C(F)(F)F)nc3C)cc2[nH]c1=O` (stereo not shown) [Compound 340] are 794 nM and 1 (a compound showing 0 to 50% inhibition at 20 μM is reported as score 1).

For the origin of these results see patent US8778966B2, “Quinolinone derivatives as PARP and tank inhibitors” (Janssen Pharmaceutica, NV, priority 2007, dated 2014).
